# Tests used:
# [1] = in vivo; cited from earlier work
# hypoxic-ischemic injury = conditions: neonatal rat, cited from earlier work
# [2] = cited from earlier work
# inflammatory cytokines = assay: Cytokine array (RodentMAP) on plasma in paclitaxel-induced model of inflammation; format: in vivo, mice; conditions: compared to control; for macrophage-derived chemokine [MDC/CCL22] level: paclitaxel alone
# Method: FIG. 1. Using a drug induced model of inflammation, a cytokine array was used to measure inflammatory cytokines, immune system alteration and the ability of our treatment to attenuate and re-establish normal status. Plasma was isolated from mice treated with the different treatments (control, paclitaxel [PTX, 40 mg/kg], NU.001[CS] and PTX+NU.001[PTX+CS]). * indicates p<0.05 and ** indicates p<0.01, one-way ANOVA or t-test, compared to control. # indicates p<0.05 and ## indicates p<0.01, one-way ANOVA or t-test, compared to PTX.
# FIG. 2. NU.001 reduces inflammatory signals in a drug-induced model of inflammation. Animals received oral delivery of NU.001 for 3-4 weeks or a control diet. The microtubule stabilizing agent paclitaxel [40 mg/kg cumulative] was administered to induce inflammation. A cytokine array was used to measure inflammation and immune system status and assess the ability of NU.001 to attenuate or re-establish normal cytokine levels. Plasma was isolated from mice treated with the different treatments (control, paclitaxel, NU.001, and paclitaxel+NU.001). […] Treatment composition is as follows: [1] Control=55% carbohydrates, 30% proteins, 15% fat, [2]
# FIGS. 4A-4B. NU.001 increases levels of Leukemia inhibitory factor [LIF] and CCL22. A. After being fed for 3-4 weeks with control diet or NU.001 diet, plasma was isolated for cytokine screening. […] LIF has been proposed to prevent or treat peripheral neuropathy. *, p <0.05, t-test.
# The chemotherapeutic agent paclitaxel was used to induce inflammation. Animals were stressed by treating with paclitaxel [40 mg/kg cumulative], resulting in changes in a number of cytokines and related molecules involved in inflammation processes. Animals were treated with NU.001 for 3-4 weeks and blood was taken for plasma isolation. A panel of cytokines was screened using RodentMAP [Myriad/RBM].
# Levels of Leukemia inhibitory factor (LIF) were compared in animals treated with control diet or NU.001 diets. After 4 weeks of treatment, blood was taken and plasma was isolated to measure levels of cytokines. […]
# [3] = oral doses as high as 500 mg/kg, rodents; cited from earlier work
# [4] = 500 mg/kg/day, divided dosage, 13 weeks, pre-fed dogs; cited from earlier work
molecule,measurement,setting,value
"C[S+]([O-])CCCCN=C=S (stereo not drawn) [SFN, sulforaphane]",terminal elimination phase,[1],long
same,time to peak plasma levels,[1],≤ 2 h
same,infarct ratio,hypoxic-ischemic injury; at 24 hours after hypoxic ischemia,reduced
same,expression of Nrf2 antioxidative transcription factor in the brain,hypoxic-ischemic injury; hypoxic-ischemic injury,increased
same,number of apoptotic cells,hypoxic-ischemic injury; hypoxic-ischemic injury,significantly decreased
same,safety of dose,[2]; 100 mg SFN from oral intake of 68 grams of broccoli sprouts,safe non-toxic
same,adverse effects of administration in humans,[2]; SFN or SFN-enriched dietary origin items such as broccoli sprouts,not demonstrated any significant adverse effects
CC(=O)O[C@H]1C(=O)[C@@]2(C)[C@H]([C@H](OC(=O)c3ccccc3)[C@]3(O)C[C@H](OC(=O)[C@H](O)[C@@H](NC(=O)c4ccccc4)c4ccccc4)C(C)=C1C3(C)C)[C@]1(OC(C)=O)CO[C@@H]1C[C@@H]2O [paclitaxel],inflammation related cytokines,inflammatory cytokines; paclitaxel 40 mg/kg cumulative alone,up-regulated
same,macrophage-derived chemokine [MDC/CCL22] level,inflammatory cytokines,Lower levels
same,macrophage-derived chemokine [MDC/CCL22] level,inflammatory cytokines; listed as Paclitaxel,decrease
epigallocatechin-3-gallate [EGCG],genotoxicity and short term toxicity,[3],no genotoxic or short term toxicity
same,adverse events or toxicity,[4],no adverse events or toxicity
